According to patent US20120309744A1, “DOSING REGIMENS AND METHODS FOR TREATING OR PREVENTING HEPATOCELLULAR CARCINOMA” (NBI Pharmaceuticals, Inc., priority 2011, published 2012):

Columns and labels:
[1] = tested on: hepatocellular carcinoma; assay: Randomized study of oral MK4 versus no MK4 in patients with hepatocellular carcinoma; type: in vivo, human
Protocol: Patients with hepatocellular carcinoma are randomized to receive oral MK4 (90 mg/day) or no MK4. All patients receive conventional therapy with percutaneous tumor ablation and/or transcatheter arterial embolization. The rate of portal vein invasion at 12 months of follow-up will be reduced in MK4 recipients as compared with controls.

[2] = tested on: hepatocellular carcinoma; assay: Subject with hepatocellular carcinoma given oral MK4 (induction then maintenance); type: in vivo, human
Protocol: A subject suffering from hepatocellular carcinoma is administered oral MK4 (90 mg daily once a day). After the administration of MK4 for six weeks, tumor sizes will decrease and the diameter of the main tumor is smaller. […] This case report provides compelling evidence that MK4 may be useful in the treatment of HCC.

[3] = tested on: MMP-3 promoter; assay: MMP promoter/luciferase reporter assay in transfected HCC cells; type: cell-based; conditions: HepG2 cells, luciferase reporter
Source text: To investigate the mechanism of suppression of MMP-1, -3 and -7 expression by MK4, HCC cells will be transiently transfected with MMP-1, -3 and -7 promoter/luciferase reporter plasmids and then treated with MK4.

[4] = tested on: dysplastic nodule or early HCC; assay: Subject with HCV-related liver cirrhosis and dysplastic nodule or early HCC given MK4 and an ACE-I; type: in vivo, human
Source text: Treatment with MK4 and an ACE-I normalizes AFP and AFP-L3 tumor markers and the hepatic nodule disappears. A subject with hepatitis C virus (HCV)-related liver cirrhosis is diagnosed with what was termed a “dysplastic nodule or early HCC.” The diagnosis is based on enhanced computed tomography (CE-CT) study and elevations of the tumor markers alpha-fetoprotein (AFP) and lectin-reactive alpha-fetal protein (AFP-L3).

[5] = tested on: MMP-3; assay: Suppression of TPA-induced MMP expression; type: cell-based
Source text: (§1) Since MK4 inhibits MMP-1, -3 and -7 mRNA expression, the ability of MK4 to suppress TPA-induced MMP expression will be investigated. […] MK4 also suppresses the MMP-1 and -3 protein expression induced by TPA.

[6] = tested on: MMP-7; assay: Suppression of TPA-induced MMP expression; type: cell-based
Source text: as §1

[7] = tested on: MMP-1; assay: Suppression of TPA-induced MMP expression; type: cell-based
Source text: as §1

[8] = after 12 months at 90 mg/day, additional twenty-two months at 45 mg daily once a day
[9] = after six weeks at 90 mg, additional twenty-two months at 45 mg daily once a day
[10] = after one-year combined treatment, MK-4 45 mg daily for additional 48 months, ACE-I halted
[11] = oral MK4 90 mg daily with ACE-I (e.g., perindopril; 4 mg/day)

Question: With `CC(C)=CCC/C(C)=C/CC/C(C)=C/CC/C(C)=C/CC1=C(C)C(=O)c2ccccc2C1=O` [MK4, menatetrenone] as the compound, how does the “rate of portal vein invasion” value ([1]; 12 months of follow-up, oral MK4 90 mg/day plus conventional therapy, versus controls) read?
Answer: reduced

Question: What about the recurrence [1, 8] of the same compound?
Answer: no signs of recurrence are observed

Question: And the tumor markers [1, 8]?
Answer: remain within the normal limits

Question: And the recurrence [2, 9]?
Answer: no signs of recurrence are observed

Question: And the tumor markers [2, 9]?
Answer: remain within the normal limits

Question: What about the “diameter of the main tumor” value ([2]; oral 90 mg daily once a day for six weeks) of the same compound?
Answer: smaller

Question: What about the MMP-3 promoter activity [3] of the same compound?
Answer: decrease MMP-3 promoter activity weakly

Question: What about the “serum level of AFP” value [4, 10] of the same compound?
Answer: remain in the normal range

Question: What about the “serum level of AFP-L3” value [4, 10] of the same compound?
Answer: remain in the normal range

Question: What about the “serum level of AFP” value [4, 11] of the same compound?
Answer: gradually decrease

Question: And the “serum level of AFP-L3” value [4, 11]?
Answer: gradually decrease

Question: What about the “MMP-3 mRNA expression induced by TPA” value [5] of the same compound?
Answer: dose-dependently inhibits

Question: And the “MMP-3 promoter activity induced by TPA” value [5]?
Answer: dose-dependently suppresses

Question: What about the “MMP-3 protein expression induced by TPA” value [5] of the same compound?
Answer: suppresses

Question: What about the “MMP-7 mRNA expression induced by TPA” value [6] of the same compound?
Answer: dose-dependently inhibits

Question: And the “MMP-7 promoter activity induced by TPA” value [6]?
Answer: dose-dependently suppresses

Question: And the “MMP-1 mRNA expression induced by TPA” value [7]?
Answer: dose-dependently inhibits

Question: What about the “MMP-1 promoter activity induced by TPA” value [7] of the same compound?
Answer: dose-dependently suppresses

Question: What about the “MMP-1 protein expression induced by TPA” value [7] of the same compound?
Answer: suppresses
